This is an account of results in patent US11524950B2, “Treatment of immune-related and inflammatory diseases” (Celgene Corporation, priority 2012, dated 2022).

Structures are written as SMILES. Like-named read-outs stand apart in the source and are kept apart here. A value given as a limit tells only on which side of the number the result lay.

In assay [1] the test system is MCP-1. The assay can be described thus: LPS-stimulated hPBMC cytokine production: MCP-1 enhancement. The class given is cell-based, human. Particulars: at 0.1 μM. As for the experimental part:
(§1) 50 ml human buffy coat was aliquoted 25 ml each into two 50 ml conical tubes and 25 ml sterile HBSS was added to each conical tube. The tubes were gently mixed by inverting. Fifteen ml of room temperature Ficoll-Paque Plus (GE Healthcare (location); cat #17-1440-02) was aliquoted into four 50 ml conical tubes. Then 25 ml of the Buffy coat/HBSS mixture was layered gently and slowly on top of the Ficoll. The samples were centrifuged at 450 rpm for 35 minutes. The top layered containing plasma was pipetted off and discarded. The interface containing mononuclear cells was transferred into two 50 ml conical tubes. Both conical tubes were filled to total volume of 50 ml with HBSS and centrifuged at 1200 rpm for 10 minutes. The cells were washed again in HBSS and spun at 1000 rpm for 10 minutes. Cell pellet was resuspended with 20 ml RPMI complete medium (RPMI/5% human sera/1× pen/strep/glut) and counted.
(§2) One hundred μl (2×10^6/ml) of hPBMCs were added to each well of a 96 well flat-bottom plate (final cell count=2×10^5/well) and incubated at 37° C. for 1 hour. […] compound was added to each test well and twenty μl medium containing 2.5% DMSO was added to each control well ([DMSO]final=0.25%) and plate was incubated for 1 hour at 37° C. Cells were then stimulated with […] 2.5 ng/ml LPS ([LPS]final=1 ng/ml) and incubated for 18 hours at 37° C.
(§3) 50 μl supernatant from each well was transferred into 3 new round-bottomed 96 well plates and stored at −20° C. for Luminex analysis. Duplicate wells were performed for each sample.
(§4) Supernatant samples were analyzed for cytokines in multiplex format according to the manufacturer's instructions (Millipore, Billerica, Ma 01821) using a Luminex IS100 instrument. IL-12 and GM-CSF analyses were done in a two-plex format using neat supernatants while all other cytokines were done in a multiplex format using supernatants diluted 1:20. Data analysis was performed using Upstate Beadview software. […] The IC50 were performed using GraphPad Prism v5.00. […]

Assay [2] has as its system RANTES. The assay can be described thus: LPS-stimulated hPBMC cytokine production: RANTES enhancement. Particulars: at 0.1 μM. The class given is cell-based, human. As for the experimental part: as §1, §2, §3, §4
The test system of assay [3] is IL-8. The assay can be described thus: LPS-stimulated hPBMC cytokine production: IL-8. The format is cell-based. Particulars: Homo sapiens; LPS 1 ng/ml, 18 hours. As to the method: as §1, §2, §3, §4
Assay [4] relates to NK cell IFN-γ production. The assay can be described thus: NK IgG-induced interferon-gamma (IFN-gamma) assay. The class given is cell-based. Particulars: Homo sapiens, 48 h. As for the experimental part: NK cells from healthy donors were isolated from buffy coat blood by negative selection using the RosetteSep NK cell enrichment cocktail (Stem Cell Technologies, Vancouver, BC) prior to Ficoll-Hypaque (Fisher Scientific Co LLC, PA) density gradient centrifugation following the manufacturers' instructions. CD56+NK cells were isolated to ˜85% purity, as determined by flow cytometry (BD Biosciences, CA).
Ninety-six-well flat-bottom plates were coated with 100 μg/mL of human IgG (Sigma) overnight at 4° C. The next day, unbound IgG was washed away with cold 1×PBS. NK cells were then plated in the IgG-coated 96-well plates at 2×10^5 cells per well in 180 μL RPMI-1640 Media and 10 ng/mL of rhIL-2 (R & D Systems, MN) was added. Test compounds were added in a volume of […]. Final concentrations of test compounds were 0.0001, 0.001, 0.01, 0.1, 1, or 10 μM. Final DMSO concentrations were 0.25%. After 48 hours, the supernatants were harvested and analyzed by ELISA for IFN-γ production.
Data used to determine the ability of test compounds to enhance NK cell IFN-γ production in response to immobilized IgG and rhIL-2 stimulation was analyzed for each donor using GraphPad Prism v5.0 software.

Assay [5] has as its system Human umbilical vascular endothelial cells. The assay can be described thus: Human umbilical vascular endothelial cell invasion assay. The format is cell-based. Particulars: for IC50: Homo sapiens; for VEGF-, bFGF-, and HGF-induced HUVEC invasion: dose-dependent. As for the experimental part: Human Umbilical Vascular Endothelial Cell Invasion Assay: In the HUVEC invasion assay, the concentration of human fibronectin is optimized to provide a suitable protein structure for adherent cells to attach to the membrane and allow free migration in response to an angiogenic stimulus (e.g. VEGF, bFGF, or HGF) in the lower chamber of the insertplate. HUVECs were starved in 0.1% BSA EBM2 medium for 6 hours after washing with the same medium 3 times. The cells were then trypsinized and centrifuged to remove the remaining trypsin. Then ˜0.5 to 1×10^6 cells in 125 μL/well and 125 μL of […] serially diluted compounds (10, 1, 0.1, 0.01, 0.001 μM) were added to the upper chamber of the BD Falcon 24-well and 96-well insert plates in duplicate and incubated for […]. (The plates contain a fluorescence blocking, microporous [3.0 μm pore size] PET membrane that has been evenly coated with human fibronectin.) Seven hundred fifty microliters of a 1.33×stock solution of VEGF (final concentration of 25 ng/mL), bFGF (final concentration of 10 ng/mL), or HGF (final concentration of 25 ng/mL) were then added to the lower chamber. The cells were incubated for 22±1 hours at 37° C. The migrated cells were stained with calcein AM at […] in HBSS containing 2% FBS, using 500 μL/well in 24-well plates and 200 μL/well in 96-well plates. The plates were incubated at 37° C. for 90 minutes and read in a fluorescence plate reader.
The percentage inhibition of cell proliferation, tube formation, migration, and invasion was calculated by subtracting the result for unstimulated DMSO control from test sample results, averaging all replicates, and normalizing to the growth factor-stimulated DMSO control (0% inhibition). The IC50 values were calculated by using GraphPad Prism 5.0.

The subject of assay [6] is MIP-1α. The assay can be described thus: LPS-stimulated hPBMC cytokine production: MIP-1α. The format is cell-based. Particulars: Homo sapiens. As for the experimental part:
as §1, §2, §3, §4

The test system of assay [7] is GM-CSF. The assay can be described thus: LPS-stimulated hPBMC cytokine production: GM-CSF. Particulars: Homo sapiens. The class given is cell-based. As for the experimental part: as §1, §2, §3, §4
Assay [8] concerns TNF-α. The assay can be described thus: LPS-stimulated hPBMC cytokine production: TNF-α. The class given is cell-based. Particulars: Homo sapiens; LPS 1 ng/ml, 18 hours. As to the method:
as §1, §2, §3, §4

The mark [9] stands for this setting: Endothelial cell, HGF 25 ng/mL, read-out: HGF-induced invasion IC50 Values.
Where [10] appears, read: Endothelial cell, VEGF 25 ng/mL, read-out: VEGF-induced invasion IC50 Values.
Where [11] appears, read: Endothelial cell, bFGF 10 ng/mL, read-out: bFGF-induced invasion IC50 Values.
[12] abbreviates: HUVEC, growth factor not given, read-out: IC50 (HUVEC invasion).
[13] abbreviates: LPS 1 ng/ml, 18 hours, read-out: MIP-1α IC50.
[14] abbreviates: LPS 1 ng/ml, 18 hours, read-out: GM-CSF IC50.

On to `O=C1CC[C@H](N2Cc3c(OCc4ccc(CN5CCOCC5)cc4)cccc3C2=O)C(=O)N1` [Test compound, (S)-3-[4-(4-morphlin-4-ylmethylbenzyloxy)-1-oxo-1,3-dihydro-isoindo-2-yl]piperidine-2,6-dione], for which the “MCP-1 Mean % of Control” value in assay [1] is reported as 233 % of control. Further, the “RANTES Mean % of Control” value in assay [2] is 153 % of control. The IC50 (usually the concentration that inhibits the measured activity by half) in assay [3] is over 10000 nM; in assay [5] (setting [9]), 19 nM; in assay [5] (setting [10]), under 0.1 nM; in assay [5] (setting [11]) it was under 0.1 nM; in assay [5] (setting [12]), under 0.1 nM; in assay [6] (setting [13]), 0.028 µM. The values for the IC50 in assay [7] (setting [14]) and in assay [8] were 0.0022 µM and 0.59 nM, respectively. Besides, the EC50 (usually the concentration at which the effect is half-maximal) in assay [4] was determined as 12 nM. The “VEGF-, bFGF-, and HGF-induced HUVEC invasion” value in assay [5] is listed as “significantly inhibited”.

On to `O=C1CC[C@@H](N2Cc3c(OCc4ccc(CN5CCOCC5)cc4)cccc3C2=O)C(=O)N1` [R-enantiomer, (R)-3-[4-(4-morphlin-4-ylmethylbenzyloxy)-1-oxo-1,3-dihydro-isoindo-2-yl]piperidine-2,6-dione], for which, in assay [1], the “MCP-1 Mean % of Control” value was 223 % of control. Also, in assay [2], the “RANTES Mean % of Control” value is 151 % of control. Further, the half-maximal inhibitory concentration (IC50) is over 10000 nM in assay [3]; 450 nM in assay [5] (setting [9]); under 0.1 nM in assay [5] (setting [10]); 13 nM in assay [5] (setting [11]); 13 nM in assay [5] (setting [12]); 0.45 µM in assay [6] (setting [13]). The IC50 in assay [7] (setting [14]) came out at 0.039 µM; in assay [8], 9.5 nM. The compound further had an EC50 in assay [4] of 16 nM. Also, the “VEGF-, bFGF-, and HGF-induced HUVEC invasion” value in assay [5] was “significantly inhibited”.

In the case of `O=C1CCC(N2Cc3c(OCc4ccc(CN5CCOCC5)cc4)cccc3C2=O)C(=O)N1` (racemic) [Racemate, 3-[4-(4-morphlin-4-ylmethylbenzyloxy)-1-oxo-1,3-dihydro-isoindo-2-yl]piperidine-2,6-dione], the “MCP-1 Mean % of Control” value in assay [1] is listed as 208 % of control. The “RANTES Mean % of Control” value in assay [2] was 153 % of control. Also, the half-inhibitory concentration (IC50) in assay [3] is over 10000 nM; in assay [5] (setting [9]) it was 590 nM; in assay [5] (setting [10]), 0.14 nM; in assay [5] (setting [11]), 0.42 nM; in assay [5] (setting [12]), 0.4 nM; in assay [6] (18 h, read-out: MIP-1α IC50 (μM)), 0.19 µM. Moreover, the IC50 was 0.0092 µM in assay [7] (18 h, read-out: GM-CSF IC50 (μM)) and 1.8 nM in assay [8]. Also, in assay [4], a half-maximal effect (EC50) was put at 37 nM. For the same compound, the “VEGF-, bFGF-, and HGF-induced HUVEC invasion” value in assay [5] is listed as “significantly inhibited”.
